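Compound exposure: 48 hours, 5 concentrations, 96-well plates. GI50 marks 50% less growth.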 The source made the active and inactive calls. Cut-off read from the data, not from the text of the source: active = GI50 up to about 1.1 µM and inactive = higher.
Experiments:
Assay in all cases: growth of human tumour cells (NCI), 48 h
SK-MEL-28 = tested on: SK-MEL-28
SF-295 = tested on: SF-295
786-0 = tested on: 786-0
KM12 = tested on: KM12
SN12C = tested on: SN12C
SF-268 = tested on: SF-268
HCC 2998 = tested on: HCC 2998
RXF 393 = tested on: RXF 393
MDA-MB-435 = tested on: MDA-MB-435
MOLT-4 = tested on: MOLT-4
SNB-75 = tested on: SNB-75
M14 = tested on: M14
MCF7 = tested on: MCF7
U-251 = tested on: U-251
TK-10 = tested on: TK-10
HOP-62 = tested on: HOP-62
RPMI-8226 = tested on: RPMI-8226
HL-60 = tested on: HL-60
SNB-19 = tested on: SNB-19
LOX IMVI = tested on: LOX IMVI
MDA-N = tested on: MDA-N
BT-549 = tested on: BT-549
OVCAR-8 = tested on: OVCAR-8
OVCAR-5 = tested on: OVCAR-5
SW-620 = tested on: SW-620
SK-OV-3 = tested on: SK-OV-3
HCT-15 = tested on: HCT-15
COLO 205 = tested on: COLO 205
UACC-62 = tested on: UACC-62
SK-MEL-5 = tested on: SK-MEL-5
OVCAR-3 = tested on: OVCAR-3
HOP-92 = tested on: HOP-92
A498 = tested on: A498
NCI-H226 = tested on: NCI-H226
ACHN = tested on: ACHN
K562 = tested on: K562
Hs-578T = tested on: Hs-578T
NCI/ADR-RES = tested on: NCI/ADR-RES
NCI-H460 = tested on: NCI-H460
UO-31 = tested on: UO-31
HCT-116 = tested on: HCT-116
UACC-257 = tested on: UACC-257
DU-145 = tested on: DU-145
PC-3 = tested on: PC-3
T47D = tested on: T47D
EKVX = tested on: EKVX
CAKI-1 = tested on: CAKI-1
Malme-3M = tested on: Malme-3M
NCI-H522 = tested on: NCI-H522
CCRF-CEM = tested on: CCRF-CEM
A549 = tested on: A549
IGROV-1 = tested on: IGROV-1
OVCAR-4 = tested on: OVCAR-4
HT-29 = tested on: HT-29
MDA-MB-231 = tested on: MDA-MB-231
NCI-H23 = tested on: NCI-H23
SF-539 = tested on: SF-539
SK-MEL-2 = tested on: SK-MEL-2
SR = tested on: SR

Cc1cc(C)nc(SCCc2cccc[n+]2C)n1
GI50 (SK-MEL-28): > 100 µM (inactive)
GI50 (SF-295): > 100 µM (inactive)
GI50 (786-0): > 100 µM (inactive)
GI50 (KM12): > 100 µM (inactive)
GI50 (SN12C): > 100 µM (inactive)
GI50 (SF-268): > 100 µM (inactive)
GI50 (HCC 2998): > 100 µM (inactive)
GI50 (RXF 393): > 100 µM (inactive)
GI50 (MDA-MB-435): > 100 µM (inactive)
GI50 (MOLT-4): > 100 µM (inactive)
GI50 (SNB-75): > 100 µM (inactive)
GI50 (M14): > 100 µM (inactive)
GI50 (MCF7): > 100 µM (inactive)
GI50 (U-251): > 100 µM (inactive)
GI50 (TK-10): > 100 µM (inactive)
GI50 (HOP-62): > 100 µM (inactive)
GI50 (RPMI-8226): > 100 µM (inactive)
GI50 (HL-60): > 100 µM (inactive)
GI50 (SNB-19): > 100 µM (inactive)
GI50 (LOX IMVI): > 100 µM (inactive)
GI50 (MDA-N): > 100 µM (inactive)
GI50 (BT-549): > 100 µM (inactive)
GI50 (OVCAR-8): > 100 µM (inactive)
GI50 (OVCAR-5): 36.1 µM (inactive)
GI50 (SW-620): > 100 µM (inactive)
GI50 (SK-OV-3): > 100 µM (inactive)
GI50 (HCT-15): > 100 µM
GI50 (COLO 205): > 100 µM (inactive)
GI50 (UACC-62): > 100 µM (inactive)
GI50 (SK-MEL-5): > 100 µM (inactive)
GI50 (OVCAR-3): > 100 µM (inactive)
GI50 (HOP-92): > 100 µM (inactive)
GI50 (A498): 60.7 µM (inactive)
GI50 (NCI-H226): > 100 µM (inactive)
GI50 (ACHN): > 100 µM (inactive)
GI50 (K562): > 100 µM (inactive)
GI50 (Hs-578T): > 100 µM (inactive)
GI50 (NCI/ADR-RES): > 100 µM (inactive)
GI50 (NCI-H460): > 100 µM (inactive)
GI50 (UO-31): > 100 µM (inactive)
GI50 (HCT-116): > 100 µM (inactive)
GI50 (UACC-257): > 100 µM (inactive)
GI50 (DU-145): > 100 µM (inactive)
GI50 (PC-3): > 100 µM (inactive)
GI50 (T47D): > 100 µM (inactive)
GI50 (EKVX): 24.9 µM (inactive)
GI50 (CAKI-1): > 100 µM (inactive)
GI50 (Malme-3M): > 100 µM (inactive)
GI50 (NCI-H522): > 100 µM (inactive)
GI50 (CCRF-CEM): > 100 µM (inactive)
GI50 (A549): 34.4 µM (inactive)
GI50 (IGROV-1): > 100 µM (inactive)
GI50 (OVCAR-4): > 100 µM (inactive)
GI50 (HT-29): > 100 µM (inactive)
GI50 (MDA-MB-231): > 100 µM (inactive)
GI50 (NCI-H23): > 100 µM (inactive)

Cc1c(NC(=O)CSC(=S)N(C)C)c(=O)n(-c2ccccc2)n1C
GI50 (SK-MEL-28): > 100 µM (inactive)
GI50 (SF-295): > 100 µM (inactive)
GI50 (786-0): > 100 µM (inactive)
GI50 (KM12): > 100 µM (inactive)
GI50 (SN12C): > 100 µM (inactive)
GI50 (SF-268): > 100 µM (inactive)
GI50 (HCC 2998): > 100 µM (inactive)
GI50 (RXF 393): > 100 µM (inactive)
GI50 (MDA-MB-435): > 100 µM (inactive)
GI50 (MOLT-4): > 100 µM (inactive)
GI50 (SNB-75): > 100 µM (inactive)
GI50 (M14): > 100 µM (inactive)
GI50 (MCF7): > 100 µM (inactive)
GI50 (SF-539): > 100 µM (inactive)
GI50 (U-251): > 100 µM (inactive)
GI50 (TK-10): > 100 µM (inactive)
GI50 (HOP-62): > 100 µM (inactive)
GI50 (RPMI-8226): > 100 µM (inactive)
GI50 (SNB-19): > 100 µM (inactive)
GI50 (LOX IMVI): > 100 µM (inactive)
GI50 (MDA-N): > 100 µM (inactive)
GI50 (BT-549): > 100 µM (inactive)
GI50 (OVCAR-8): > 100 µM (inactive)
GI50 (OVCAR-5): > 100 µM (inactive)
GI50 (SW-620): > 100 µM (inactive)
GI50 (SK-OV-3): > 100 µM (inactive)
GI50 (HCT-15): > 100 µM
GI50 (COLO 205): > 100 µM (inactive)
GI50 (SK-MEL-5): > 100 µM (inactive)
GI50 (OVCAR-3): > 100 µM (inactive)
GI50 (NCI-H226): > 100 µM (inactive)
GI50 (ACHN): > 100 µM (inactive)
GI50 (K562): > 100 µM (inactive)
GI50 (Hs-578T): > 100 µM (inactive)
GI50 (NCI/ADR-RES): > 100 µM (inactive)
GI50 (NCI-H460): > 100 µM (inactive)
GI50 (UO-31): > 100 µM (inactive)
GI50 (HCT-116): > 100 µM (inactive)
GI50 (UACC-257): > 100 µM (inactive)
GI50 (DU-145): > 100 µM (inactive)
GI50 (PC-3): > 100 µM (inactive)
GI50 (SK-MEL-2): > 100 µM (inactive)
GI50 (T47D): > 100 µM (inactive)
GI50 (EKVX): > 100 µM (inactive)
GI50 (CAKI-1): > 100 µM (inactive)
GI50 (SR): > 100 µM (inactive)
GI50 (Malme-3M): > 100 µM (inactive)
GI50 (NCI-H522): > 100 µM (inactive)
GI50 (CCRF-CEM): > 100 µM (inactive)
GI50 (A549): > 100 µM (inactive)
GI50 (IGROV-1): > 100 µM (inactive)
GI50 (OVCAR-4): > 100 µM (inactive)
GI50 (HT-29): > 100 µM (inactive)
GI50 (MDA-MB-231): > 100 µM (inactive)
GI50 (NCI-H23): > 100 µM (inactive)

From ChEMBL document CHEMBL1201862, “PubChem BioAssay data set” (2004)
